{"source": "patent US8936916B2", "about": "“Polypeptides for microbial detection” (3M Innovative Properties Company, priority 2008, dated 2015)", "key": {"[1]": {"conditions": "as the pH drops from 7; cited from earlier work"}, "[2]": {"assay": "Permeabilization of DOPC/cholesterol liposomes containing glucose oxidase (glucose oxidase/HRP colour reaction, scanned image)", "format": "biochemical", "conditions": "for Relative glucose oxidase activity (integrated digital values): DOPC/Cholesterol", "experimental": "(§1) The formation of a pore allows glucose into the liposome where it reacts with glucose oxidase to generate hydrogen peroxide. The hydrogen peroxide reacts with HRP, 4-AAP and TOOS (all outside the liposome) to generate an intense purple color.\n(§2) The ability of the phosphorylated phylloxin to open liposomes in the presence of phosphatase was tested by preparing a developing solution of 0.5 mg/mL TOOS (3-(N-Ethyl-3-methylanilino)-2-hydroxypropanesulfonic acid sodium salt) (Sigma-Aldrich, St. Louis, Mo.), 1.0 mg/mL 4-AAP (4-amino-antipyrene) (Sigma-Aldrich), 12.5 mg/mL glucose and 0.0001 mg/mL HRP (horseradish peroxidase) (Pierce Biotechnology, Rockford, Ill.) in 50 mM TES.\n(§3) 200 μL of this solution was placed in one well of 96-well plate containing 10 μL (0.004 mg/mL) of a DPPC liposome suspension. A second well was prepared similarly and 10 μL (0.3 mg/mL) of phylloxin solution in TES was also added. A third well was prepared similar to the second well. Alkaline phosphatase (10 μL at 2.5 mg/mL in TES) was added to the third well to a final concentration of 0.11 mg/mL. A similar set of wells was prepared with DOPC/cholesterol liposomes at the same concentration.\n(§4) A weaker color was apparent in the well with DPPC liposomes, phylloxin and phosphatase, and weaker again in the well with DPPC liposomes and phylloxin. The remaining wells were essentially colorless. The image was recorded on an HP scanner and analyzed using an AlphaImager (Alpha Innotech, San Leandro, Calif.). The integrated digital values at 30 minutes are shown in Table 1 below, and at two hours in Table 2."}, "[3]": {"assay": "Permeabilization of DPPC liposomes containing glucose oxidase (glucose oxidase/HRP colour reaction, scanned image)", "format": "biochemical", "conditions": "for Relative glucose oxidase activity (integrated digital values): DPPC; for Color apparent in the well: 30 minutes at room temperature", "experimental": "as §1, §2, §3, §4"}, "[4]": {"assay": "Permeabilization of DPPC liposomes containing glucose oxidase by phosphorylated dermatoxin (absorbance at 538 nm)", "format": "biochemical", "conditions": "Positive Control", "experimental": "DPPC liposomes containing 5 mg/mL glucose oxidase were prepared as described in Example 2. Glucose oxidase activity was measured in a coupled enzyme reaction with horseradish peroxidase as described in Example 2. The various solutions were quickly added to each of the wells of a microplate using a multichannel pipette and the reactions were started (at T=0 hours) with the addition to the wells of a solution containing glucose and 4-AAP.\nThe ability of the phosphorylated dermatoxin to open liposomes in the presence of phosphatase was tested by preparing a developing solution as described in Example 2. One hundred-fifty microliters of the developing solution was placed in each well of a 96-well microplate. To each column in the plate was added 20 μL of TES buffer containing one of the following concentrations of unpurified dermatoxin: 3.3 mg/mL, 3.3×10^−1 mg/mL, 3.3×10^−2 mg/mL, 3.3×10^−3 mg/mL, 3.3×10^−4 mg/mL, 3.3×10^−5 mg/mL, 3.3×10^−6 mg/mL, or 3.3×10^−7 mg/mL. Negative control wells contained TES buffer with no dermatoxin. Positive control wells buffer contained TES buffer with Triton X-100. Ten-microliter aliquots of the following concentrations of DPPC liposomes (containing 5 mg/mL glucose oxidase) were added to wells in duplicate rows: 0.1 mg lipid/mL, 0.02 mg lipid/mL, 0.004 mg lipid/mL, or plain buffer. To one of the duplicate rows was added 20 μL of 2.5 mg/mL alkaline phosphatase in TES. The other duplicate row received 20 μL of TES buffer. Thus the final dermatoxin concentration in the well varied from […], and the final lipid concentration in the well ranged from 0.005 mg lipid/mL to 2.0×10^−4 mg lipid/mL.\nThe absorbance was recorded at 538 nm on a SpectraMax M5 plate reader (Molecular Devices, Sunnyvale, Calif.) after two hours incubation at room temperature, and also after overnight incubation (approximately 18 hours). Since the absorbance of several wells was saturated, the overnight samples were diluted 1:10 with 50 mmol TES and the absorbance of the diluted samples was measured."}, "[5]": {"conditions": "2-hour incubation, liposome + peptide"}, "[6]": {"conditions": "2-hour incubation, liposome + peptide + phosphatase"}, "[7]": {"conditions": "30-minute incubation, liposome + peptide"}, "[8]": {"conditions": "30-minute incubation, liposome + peptide + phosphatase"}}, "note": "Ends that are not written are not given here.", "data": [{"substance": "GALA", "values": [{"measurement": "pH at which the cytolytic peptide becomes activated", "setting": "[1]", "value": "about 5.0"}]}, {"substance": "GWMSKIASGIGTFLSGMQQ (GWMSKIASGIGTFLSGMQQ-NH2; not fully specified (residues 4, 8, 12, 15, N-terminus); also: phosphorylated) [Tetraphosphorylated Phylloxin, fully phosphorylated phylloxin made by Fmoc synthesis on Rink amide resin, HPLC purified]", "values": [{"measurement": "Relative glucose oxidase activity (integrated digital values)", "setting": "[2]; [5]", "value": 128550}, {"measurement": "Relative glucose oxidase activity (integrated digital values)", "setting": "[2]; [6]", "value": 299950}, {"measurement": "Relative glucose oxidase activity (integrated digital values)", "setting": "[2]; [7]", "value": 67680}, {"measurement": "Relative glucose oxidase activity (integrated digital values)", "setting": "[2]; [8]", "value": 184416}, {"measurement": "Color apparent in the well", "setting": "[2]; 30 minutes at room temperature, DOPC/cholesterol liposomes, phylloxin and phosphatase", "value": "dark purple color"}, {"measurement": "Opening of liposomes", "setting": "[2]; DOPC/cholesterol liposomes, in the absence of alkaline phosphatase", "value": "little effect"}, {"measurement": "Opening of liposomes", "setting": "[2]; DOPC/cholesterol liposomes, in the presence of alkaline phosphatase", "value": "rapidly opens liposomes"}, {"measurement": "Relative glucose oxidase activity (integrated digital values)", "setting": "[3]; [5]", "value": 173670}, {"measurement": "Relative glucose oxidase activity (integrated digital values)", "setting": "[3]; [6]", "value": 217620}, {"measurement": "Relative glucose oxidase activity (integrated digital values)", "setting": "[3]; [7]", "value": 84996}, {"measurement": "Relative glucose oxidase activity (integrated digital values)", "setting": "[3]; [8]", "value": 97588}, {"measurement": "Color apparent in the well", "setting": "[3]; DPPC liposomes and phylloxin, no phosphatase", "value": "weaker again"}, {"measurement": "Color apparent in the well", "setting": "[3]; DPPC liposomes, phylloxin and phosphatase", "value": "weaker color"}, {"measurement": "Phosphatase-dependent opening of liposomes", "setting": "[3]; DPPC liposomes, with versus without alkaline phosphatase", "value": "still an effect, but it is not so pronounced"}]}, {"substance": "Triton X-100 [Positive Control, reference compound]", "values": [{"measurement": "Absorbance at 538 nm (cytolytic peptide activity)", "setting": "[4]; 2 hrs, lipid conc. 0, with phosphatase", "value": 2.272, "unit": "absorbance units"}, {"measurement": "Absorbance at 538 nm (cytolytic peptide activity)", "setting": "[4]; 2 hrs, lipid conc. 0, without phosphatase", "value": 0.123, "unit": "absorbance units"}, {"measurement": "Absorbance at 538 nm (cytolytic peptide activity)", "setting": "[4]; 2 hrs, lipid conc. 0.004, with phosphatase", "value": 0.132, "unit": "absorbance units"}, {"measurement": "Absorbance at 538 nm (cytolytic peptide activity)", "setting": "[4]; 2 hrs, lipid conc. 0.004, without phosphatase", "value": 0.210, "unit": "absorbance units"}, {"measurement": "Absorbance at 538 nm (cytolytic peptide activity)", "setting": "[4]; 2 hrs, lipid conc. 0.02, with phosphatase", "value": 0.296, "unit": "absorbance units"}, {"measurement": "Absorbance at 538 nm (cytolytic peptide activity)", "setting": "[4]; 2 hrs, lipid conc. 0.02, without phosphatase", "value": 0.602, "unit": "absorbance units"}, {"measurement": "Absorbance at 538 nm (cytolytic peptide activity)", "setting": "[4]; 2 hrs, lipid conc. 0.1, with phosphatase", "value": 0.557, "unit": "absorbance units"}, {"measurement": "Absorbance at 538 nm (cytolytic peptide activity)", "setting": "[4]; 2 hrs, lipid conc. 0.1, without phosphatase", "value": 2.220, "unit": "absorbance units"}, {"measurement": "Absorbance at 538 nm (cytolytic peptide activity)", "setting": "[4]; 18 hrs (d), 1:10-diluted sample, lipid conc. 0, with phosphatase", "value": 1.064, "unit": "absorbance units"}, {"measurement": "Absorbance at 538 nm (cytolytic peptide activity)", "setting": "[4]; 18 hrs (d), 1:10-diluted sample, lipid conc. 0, without phosphatase", "value": 0.055, "unit": "absorbance units"}, {"measurement": "Absorbance at 538 nm (cytolytic peptide activity)", "setting": "[4]; 18 hrs (d), 1:10-diluted sample, lipid conc. 0.004, with phosphatase", "value": 0.056, "unit": "absorbance units"}, {"measurement": "Absorbance at 538 nm (cytolytic peptide activity)", "setting": "[4]; 18 hrs (d), 1:10-diluted sample, lipid conc. 0.004, without phosphatase", "value": 0.097, "unit": "absorbance units"}, {"measurement": "Absorbance at 538 nm (cytolytic peptide activity)", "setting": "[4]; 18 hrs (d), 1:10-diluted sample, lipid conc. 0.02, with phosphatase", "value": 0.094, "unit": "absorbance units"}, {"measurement": "Absorbance at 538 nm (cytolytic peptide activity)", "setting": "[4]; 18 hrs (d), 1:10-diluted sample, lipid conc. 0.02, without phosphatase", "value": 0.274, "unit": "absorbance units"}, {"measurement": "Absorbance at 538 nm (cytolytic peptide activity)", "setting": "[4]; 18 hrs (d), 1:10-diluted sample, lipid conc. 0.1, with phosphatase", "value": 0.252, "unit": "absorbance units"}, {"measurement": "Absorbance at 538 nm (cytolytic peptide activity)", "setting": "[4]; 18 hrs (d), 1:10-diluted sample, lipid conc. 0.1, without phosphatase", "value": 1.018, "unit": "absorbance units"}, {"measurement": "Absorbance at 538 nm (cytolytic peptide activity)", "setting": "[4]; 18 hrs, lipid conc. 0, with phosphatase", "value": 4.000, "unit": "absorbance units"}, {"measurement": "Absorbance at 538 nm (cytolytic peptide activity)", "setting": "[4]; 18 hrs, lipid conc. 0, without phosphatase", "value": 0.158, "unit": "absorbance units"}, {"measurement": "Absorbance at 538 nm (cytolytic peptide activity)", "setting": "[4]; 18 hrs, lipid conc. 0.004, with phosphatase", "value": 0.158, "unit": "absorbance units"}, {"measurement": "Absorbance at 538 nm (cytolytic peptide activity)", "setting": "[4]; 18 hrs, lipid conc. 0.004, without phosphatase", "value": 0.524, "unit": "absorbance units"}, {"measurement": "Absorbance at 538 nm (cytolytic peptide activity)", "setting": "[4]; 18 hrs, lipid conc. 0.02, with phosphatase", "value": 0.524, "unit": "absorbance units"}, {"measurement": "Absorbance at 538 nm (cytolytic peptide activity)", "setting": "[4]; 18 hrs, lipid conc. 0.02, without phosphatase", "value": 2.043, "unit": "absorbance units"}, {"measurement": "Absorbance at 538 nm (cytolytic peptide activity)", "setting": "[4]; 18 hrs, lipid conc. 0.1, with phosphatase", "value": 2.043, "unit": "absorbance units"}]}]}
